Results as given in patent publication US11161850B2, “Fused pyrazine derivatives as A2A / A2B inhibitors” (Incyte Corporation, priority 2018, dated 2021).
Like-named read-outs stand apart in the source and are kept apart here.

What was measured:
Adenosine A2A = Adenosine A2A (Homo sapiens (Human), UniProt P29274); test: A2A Tag-Lite HTRF assay; type: binding
Description: Example C. A2A Tag-Lite® HTRF Assay

[1] = molecular target: human adenosine A2B receptor (Homo sapiens (Human), UniProt P29275); test: Adenosine A2B Receptor Cyclic AMP GS Assay; type: cell-based; conditions: HEK-293 cells expressing human A2B, agonist NECA 12 nM
Protocol: Example B. Adenosine A2B Receptor Cyclic AMP GS Assay
Stably transfected HEK-293 cells expressing the human adenosine A2B receptor (Perkin Elmer) were maintained in MEM culture medium with 10% FBS and 100 μg/mL Geneticin (Life Technologies). 18 to 24 hours prior to assay, geneticin was removed from culture. The cisbio cAMP-GS Dynamic kit utilizing the FRET (Fluorescence Resonance Energy Transfer) technology was used to measure cAMP accumulation in the cells. Compounds of the present disclosure at an appropriate concentration were mixed with 10000 cells/well in white 96 well half area plates (Perkin Elmer) for 30 min at room temperature gently shaking. Agonist, NECA (R&D Technologies) at 12 nM was added to each well for 60 min at room temperature gently shaking. Detection reagents, d2-labeled cAMP (acceptor) and anti-cAMP cryptate (donor) were added to each well for 60 min at rt gently shaking. Plates were read on Pherastar (BMG Labtech), fluorescence ratio 665/620 was calculated and EC50 determination was performed by fitting the curve of percent of control versus the log of the compound concentration using GraphPad Prism.

[2] = read-out: A2A_Ki, Tag-Lite Adenosine A2A labeled cells, fluorescent ligand 12.5 nM
[3] = Tag-Lite Adenosine A2A labeled cells, fluorescent ligand 12.5 nM, read-out: A2A_Ki

human adenosine A2B receptor, sequence (P29275 whole entry): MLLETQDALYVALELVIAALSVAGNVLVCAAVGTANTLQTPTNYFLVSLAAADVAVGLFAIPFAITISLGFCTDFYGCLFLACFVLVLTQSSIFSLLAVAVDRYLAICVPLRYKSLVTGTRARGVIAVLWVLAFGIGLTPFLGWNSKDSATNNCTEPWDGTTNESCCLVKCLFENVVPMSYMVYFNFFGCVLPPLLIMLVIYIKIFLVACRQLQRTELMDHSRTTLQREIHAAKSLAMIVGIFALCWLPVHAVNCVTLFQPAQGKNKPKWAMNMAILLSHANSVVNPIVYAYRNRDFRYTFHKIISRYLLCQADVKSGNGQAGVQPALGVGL
Adenosine A2A, sequence (P29274 whole entry): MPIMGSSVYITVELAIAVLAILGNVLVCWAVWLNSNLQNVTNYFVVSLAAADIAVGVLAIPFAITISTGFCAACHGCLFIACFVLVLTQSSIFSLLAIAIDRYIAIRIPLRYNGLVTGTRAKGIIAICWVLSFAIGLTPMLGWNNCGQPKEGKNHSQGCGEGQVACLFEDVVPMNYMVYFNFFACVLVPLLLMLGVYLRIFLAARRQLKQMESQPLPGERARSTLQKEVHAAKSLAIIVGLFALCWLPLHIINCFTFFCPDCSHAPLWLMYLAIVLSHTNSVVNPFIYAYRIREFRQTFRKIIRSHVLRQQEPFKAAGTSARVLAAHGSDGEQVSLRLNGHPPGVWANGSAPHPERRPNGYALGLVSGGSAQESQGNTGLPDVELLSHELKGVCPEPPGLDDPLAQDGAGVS

Row | SMILES | Ki (Adenosine A2A) | EC50 ([1]; A2B_cAMP_EC50 (nM)) | Ki (Adenosine A2A; [2]) | EC50 ([1]; read-out: A2B_cAMP_EC50) | Ki (Adenosine A2A; [3])
1 | N#Cc1cccc(-c2nc(N)c3nc(C(O)c4ccccc4F)nn3c2-c2ccncn2)c1 (single isomer, unassigned) [Example 55, 3-(8-Amino-2-((2-fluorophenyl)(hydroxy)methyl)-5-(pyrimidin-4-yl)-[1,2,4]triazolo[1,5-a]pyrazin-6-yl)benzonitrile] | < 10 nM | < 10 nM | – | – | –
2 | Cc1n[nH]cc1-c1c(-c2cccc(C#N)c2)nc(N)c2nc(C(O)c3c(F)cccc3F)nn12 (single isomer, unassigned) [Example 103, 3-(8-amino-2-((2,6-difluorophenyl)(hydroxy)methyl)-5-(3-methyl-1H-pyrazol-4-yl)-[1,2,4]triazolo[1,5-a]pyrazin-6-yl)benzonitrile] | – | – | < 10 nM | < 10 nM | –
3 | N#Cc1cccc(-c2nc(N)c3nc(C(O)c4c(F)cccc4F)nn3c2-c2cnco2)c1 (single isomer, unassigned) [Example 105, 3-(8-amino-2-((2,6-difluorophenyl)(hydroxy)methyl)-5-(oxazol-5-yl)-[1,2,4]triazolo[1,5-a]pyrazin-6-yl)benzonitrile] | < 10 nM | < 10 nM | – | – | –
4 | N#Cc1cccc(-c2cn3nc(Cc4ncccc4Nc4cnn(C5CCOCC5)c4)nc3c(N)n2)c1F [Example 121, 3-(8-amino-2-((3-((1-(tetrahydro-2H-pyran-4-yl)-1H-pyrazol-4-yl)amino)pyridin-2-yl)methyl)-[1,2,4]triazolo[1,5-a]pyrazin-6-yl)-2-fluorobenzonitrile] | – | 10 to 100 nM | – | – | < 10 nM
5 | N#Cc1cccc(-c2cn3nc(Cc4ccccn4)cc3c(N)n2)c1 [Example 16, 3-(4-Amino-2-(pyridin-2-ylmethyl)pyrazolo[1,5-a]pyrazin-6-yl)benzonitrile] | – | < 10 nM | – | – | < 10 nM
6 | CCn1nccc1-c1c(-c2cccc(C#N)c2)nc(N)c2nc(C(O)c3c(F)cccc3F)nn12 (single isomer, unassigned) [Example 93, 3-(8-amino-2-((2,6-difluorophenyl)(hydroxy)methyl)-5-(1-ethyl-1H-pyrazol-5-yl)-[1,2,4]triazolo[1,5-a]pyrazin-6-yl)benzonitrile] | – | – | < 10 nM | < 10 nM | –
7 | CCN(C)C(=O)c1cc2c(N)nc(-c3cccc(C#N)c3)c(-c3ccncn3)n2n1 [Example 11, 4-Amino-6-(3-cyanophenyl)-N-ethyl-N-methyl-7-(pyrimidin-4-yl)pyrazolo[1,5-a]pyrazine-2-carboxamide] | – | < 10 nM | – | – | < 10 nM
8 | N#Cc1cccc(-c2nc(N)c3nc(C(O)c4ccccc4Cl)nn3c2-c2ccncn2)c1 (single isomer, unassigned) [Example 58, 3-(8-Amino-2-((2-chlorophenyl)(hydroxy)methyl)-5-(pyrimidin-4-yl)-[1,2,4]triazolo[1,5-a]pyrazin-6-yl)benzonitrile] | – | – | < 10 nM | < 10 nM | –
9 | CS(=O)(=O)CCn1cc(-c2cccc(F)c2Cc2nc3c(N)nc(-c4cccc(C#N)c4F)cn3n2)cn1 [Example 112, 3-(8-amino-2-(2-fluoro-6-(1-(2-(methylsulfonyl)ethyl)-1H-pyrazol-4-yl)benzyl)-[1,2,4]triazolo[1,5-a]pyrazin-6-yl)-2-fluorobenzonitrile] | – | < 10 nM | – | – | < 10 nM
10 | CN1CCC(NCc2cccc(F)c2Cc2nc3c(N)nc(-c4cccc(C#N)c4)c(-c4ccncn4)n3n2)C1=O (stereo not shown) [Example 72, 3-(8-amino-2-(2-fluoro-6-(((1-methyl-2-oxopyrrolidin-3-yl)amino)methyl)benzyl)-5-(pyrimidin-4-yl)-[1,2,4]triazolo[1,5-a]pyrazin-6-yl)benzonitrile] | – | < 10 nM | – | – | < 10 nM
11 | Cc1cnccc1-c1c(-c2cccc(C#N)c2)nc(N)c2nc(C(O)c3c(F)cccc3F)nn12 (single isomer, unassigned) [Example 109, 3-(8-amino-2-((2,6-difluorophenyl)(hydroxy)methyl)-5-(3-methylpyridin-4-yl)-[1,2,4]triazolo[1,5-a]pyrazin-6-yl)benzonitrile] | – | – | < 10 nM | < 10 nM | –
12 | N#Cc1cccc(-c2cn3nc(Cc4ccccc4F)c(C#N)c3c(N)n2)c1 [Example 21, 4-Amino-6-(3-cyanophenyl)-2-(2-fluorobenzyl)pyrazolo[1,5-a]pyrazine-3-carbonitrile] | – | 100 to 1000 nM | – | – | < 10 nM
13 | N#Cc1cccc(-c2nc(N)c3nc(C(O)c4c(F)cccc4OC(F)F)nn3c2-c2ccncn2)c1 (single isomer, unassigned) [Example 97, 3-(8-amino-2-((2-(difluoromethoxy)-6-fluorophenyl)(hydroxy)methyl)-5-(pyrimidin-4-yl)-[1,2,4]triazolo[1,5-a]pyrazin-6-yl)benzonitrile] | < 10 nM | < 10 nM | – | – | –
14 | N#Cc1cccc(-c2nc(N)c3cc(C(O)c4ccccc4F)nn3c2-c2ccncn2)c1 (stereo not shown) [Example 38, 3-(4-Amino-2-((2-fluorophenyl)(hydroxy)methyl)-7-(pyrimidin-4-yl)pyrazolo[1,5-a]pyrazin-6-yl)benzonitrile] | – | < 10 nM | – | – | < 10 nM
15 | Cc1ncoc1-c1c(-c2cccc(C#N)c2)nc(N)c2nc(Cc3c(F)cccc3CN3CC[C@@](C)(C(=O)O)C3)nn12 [Example 76, (R)-1-(2-((8-amino-6-(3-cyanophenyl)-5-(4-methyloxazol-5-yl)-[1,2,4]triazolo[1,5-a]pyrazin-2-yl)methyl)-3-fluorobenzyl)-3-methylpyrrolidine-3-carboxylic Acid] | – | 10 to 100 nM | – | – | < 10 nM
16 | Cc1cnccc1-c1c(-c2cccc(C#N)c2)nc(N)c2nc(C(O)c3c(F)cccc3F)nn12 (single isomer, unassigned) [Example 108, 3-(8-amino-2-((2,6-difluorophenyl)(hydroxy)methyl)-5-(3-methylpyridin-4-yl)-[1,2,4]triazolo[1,5-a]pyrazin-6-yl)benzonitrile] | < 10 nM | < 10 nM | – | – | –
17 | N#Cc1cccc(-c2cn3nc(C(O)c4c(F)cccc4CN4CCN5C(=O)CCC5C4)nc3c(N)n2)c1F (racemic) [Example 113, 3-(8-amino-2-((2-fluoro-6-((6-oxohexahydropyrrolo[1,2-a]pyrazin-2(1H)-yl)methyl)phenyl)(hydroxy)methyl)-[1,2,4]triazolo[1,5-a]pyrazin-6-yl)-2-fluorobenzonitrile] | – | 10 to 100 nM | – | – | < 10 nM
18 | Cc1ncoc1-c1c(-c2cccc(C#N)c2F)nc(N)c2nc(Cc3ccccn3)nn12 [Example 86, 3-(8-amino-5-(4-methyloxazol-5-yl)-2-(pyridin-2-ylmethyl)-[1,2,4]triazolo[1,5-a]pyrazin-6-yl)-2-fluorobenzonitrile] | – | < 10 nM | – | – | < 10 nM
19 | CN1CCN(c2cc(-c3cc4c(N)nc(-c5cccc(C#N)c5)c(-c5ccncc5)n4n3)ccn2)CC1 [Example 26, 3-(4-Amino-2-(2-(4-methylpiperazin-1-yl)pyridin-4-yl)-7-(pyridin-4-yl)pyrazolo[1,5-a]pyrazin-6-yl)benzonitrile] | – | 10 to 100 nM | – | – | < 10 nM
20 | Cn1cc(-c2c(-c3cccc(C#N)c3)nc(N)c3nc(Cc4ccccn4)nn23)ccc1=O [Example 28, 3-(8-Amino-5-(1-methyl-6-oxo-1,6-dihydropyridin-3-yl)-2-(pyridin-2-ylmethyl)-[1,2,4]triazolo[1,5-a]pyrazin-6-yl)benzonitrile] | – | 10 to 100 nM | – | – | < 10 nM
21 | N#Cc1cccc(-c2nc(N)c3nc(C(=O)N4CCC4)nn3c2-c2ccncc2F)c1 [Example 125, 3-(8-amino-2-(azetidine-1-carbonyl)-5-(3-fluoropyridin-4-yl)-[1,2,4]triazolo[1,5-a]pyrazin-6-yl)benzonitrile] | – | 10 to 100 nM | – | – | < 10 nM
22 | CCn1nccc1-c1c(-c2cccc(C#N)c2)nc(N)c2cc(Cc3ccccn3)nn12 [Example 18, 3-(4-Amino-7-(1-ethyl-1H-pyrazol-5-yl)-2-(pyridin-2-ylmethyl)pyrazolo[1,5-a]pyrazin-6-yl)benzonitrile] | – | < 10 nM | – | – | < 10 nM
23 | Cn1nncc1-c1c(-c2cccc(C#N)c2)nc(N)c2cc(Cc3ccccn3)nn12 [Example 37, 3-(4-Amino-7-(1-methyl-1H-1,2,3-triazol-5-yl)-2-(pyridin-2-ylmethyl)pyrazolo[1,5-a]pyrazin-6-yl)benzonitrile] | – | < 10 nM | – | – | < 10 nM
24 | Cn1cc(Cn2cc(-c3cccc(F)c3Cc3nc4c(N)nc(-c5cccc(C#N)c5F)cn4n3)cn2)cn1 [Example 99, 3-(8-amino-2-(2-fluoro-6-(1-((1-methyl-1H-pyrazol-4-yl)methyl)-1H-pyrazol-4-yl)benzyl)-[1,2,4]triazolo[1,5-a]pyrazin-6-yl)-2-fluorobenzonitrile] | – | 10 to 100 nM | – | – | < 10 nM
25 | N#Cc1cccc(-c2nc(N)c3nc(Cc4ccccn4)nn3c2-c2ccncn2)c1 [Example 27, 3-(8-Amino-2-(pyridin-2-ylmethyl)-5-(pyrimidin-4-yl)-[1,2,4]triazolo[1,5-a]pyrazin-6-yl)benzonitrile] | – | < 10 nM | – | – | < 10 nM
26 | CCNC(=O)c1cc2c(N)nc(-c3cccc(C#N)c3)c(C(C)(F)F)n2n1 [Example 5, 4-Amino-6-(3-cyanophenyl)-7-(1,1-difluoroethyl)-N-ethylpyrazolo[1,5-a]pyrazine-2-carboxamide] | – | 100 to 1000 nM | – | – | < 10 nM
